Laboratory results: patent publication US20260259169A1, “BETA-LACTAMASE SUBSTRATE COMPOUNDS AND ELECTROCHEMICAL DETECTION METHODS USING THEM” (priority 2023, published 2026)

Tests used:
IMP-61 = assay: Reactivity with recombinant enzyme, amperometric; format: biochemical; settings: class B metallo-beta-lactamase, protein; CF3 compound 2.4 mM, HMRZ-86 1.2 mM; 10 minutes at 37° C.
IMP-31 = assay: Reactivity with recombinant enzyme, amperometric; format: biochemical; settings: class B metallo-beta-lactamase, protein; CF3 compound 2.4 mM, HMRZ-86 1.2 mM; 10 minutes at 37° C.
OXA-40 [1] = assay: Reactivity with recombinant enzyme, amperometric; format: biochemical; settings: class D carbapenemase, protein; CF3 compound 2.4 mM, HMRZ-86 1.2 mM; 10 minutes at 37° C.
OXA-213 = assay: Reactivity with recombinant enzyme, amperometric; format: biochemical; settings: class D carbapenemase, protein; CF3 compound 2.4 mM, HMRZ-86 1.2 mM; 10 minutes at 37° C.
IMP-18 = assay: Reactivity with recombinant enzyme, amperometric; format: biochemical; settings: class B metallo-beta-lactamase, protein; CF3 compound 2.4 mM, HMRZ-86 1.2 mM; 10 minutes at 37° C.
KPC-31 = KPC-31 (Klebsiella pneumoniae, UniProt Q9F663, D178Y/H272Y); assay: Reactivity with recombinant enzyme, amperometric; format: biochemical; settings: class A carbapenemase, protein, CF3 compound 2.4 mM, HMRZ-86 1.2 mM, 10 minutes at 37° C.
NDM-1 = NDM-1 (Klebsiella pneumoniae, UniProt C7C422); assay: Reactivity with recombinant enzyme, amperometric; format: biochemical; settings: class B metallo-beta-lactamase, protein; CF3 compound 2.4 mM, HMRZ-86 1.2 mM; 10 minutes at 37° C.
[2] = system: bacteria strains that produce VIM type; assay: Amperometric detection in blood culture; format: cell-based; settings: CF3 6.0 mM, HMRZ-86 1.2 mM
Procedure: (§1) The possibility of the beta-lactamase substrate compounds to detect bacteria strains producing different beta-lactamases was tested for the reference HMRZ-86 of example 1 (at 1.2 mM) and the beta-lactamase substrate compound with R being 2-nitro-4-cyano of Example 1 (at 2.4 mM). […] Consequently, amperometric voltammetry of the negative control with ATCC should give an oxidation current of 0 nA for the measurement to be valid.
(§2) The beta-lactamase with group β being CF3 (6.0 mM), as well as the reference HMRZ-86 (1.2 mM) were also tested with blood cultures comprising bacteria strains producing the carbapenemase KPC type, the metallo-beta-lactamase VIM type and the metallo-beta-lactamase NDM type, as well as a blood culture comprising no bacteria strains producing beta-lactamases (negative control ATCC).

[3] = system: bacteria strains that produce NDM; assay: Amperometric detection in blood culture; format: cell-based; settings: CF3 6.0 mM, HMRZ-86 1.2 mM
Procedure: as §1, §2

IMP-14 = assay: Reactivity with recombinant enzyme, amperometric; format: biochemical; settings: class B metallo-beta-lactamase, protein; CF3 compound 2.4 mM, HMRZ-86 1.2 mM; 10 minutes at 37° C.
OXA-48 [4] = assay: Reactivity with recombinant enzyme, amperometric; format: biochemical; settings: class D carbapenemase, protein; CF3 compound 2.4 mM, HMRZ-86 1.2 mM; 10 minutes at 37° C.
OXA-143 = assay: Reactivity with recombinant enzyme, amperometric; format: biochemical; settings: class D carbapenemase, protein; CF3 compound 2.4 mM, HMRZ-86 1.2 mM; 10 minutes at 37° C.
[5] = system: AmpC positive clinical strains; assay: Reactivity with AmpC positive clinical strains, amperometric; format: cell-based, 11 different species; settings: 30 strains, colonies in TPTZ buffer, 10 minutes at 37° C.
Procedure: The reactivities of HMRZ-86 and the CF3 (β)/4-cyanophenyl (R) [formula (I)] compounds for enzymes from Ambler classes C (AmpC cephalosporinases) were analyzed with AmpC positive clinical strains previously characterized by sequencing. These strains correspond to 11 different species, 24 different enzymes and 2 mechanisms of enzyme production [HCASE (hyperproductive) and CASEP (plasmid mediated (See Table 2) Table 2 represents the list of AmpC (Ambler class C cephalosporinases) positive clinical strains tested with the HMRZ-86 and the CF3 (β)/4-cyanophenyl (R) [formula (I)] compounds.
Colonies from 30 AmpC positive clinical strains collected from solid culture medium were diluted in a standard TPTZ buffer. […] A negative clinical strain and an positive one (CTX-M) were analyzed as […].

IMP-16 = assay: Reactivity with recombinant enzyme, amperometric; format: biochemical; settings: class B metallo-beta-lactamase, protein; CF3 compound 2.4 mM, HMRZ-86 1.2 mM; 10 minutes at 37° C.
[6] = system: bacteria strains producing the carbapenemase KPC type; assay: Amperometric detection in blood culture; format: cell-based; settings: CF3 6.0 mM, HMRZ-86 1.2 mM
Procedure: as §2

[7] = NMR stability study in relation to a dimethylformamide (DMF) reference; format: physicochemical; settings: for degradation: DMF reference
Procedure: More particularly, when the degradation is determined by means of NMR measurements, a first sample comprising the beta-lactamase substrate compound according to the present disclosure and a second sample comprising the reference, e.g. DMF, are heated or cooled to a predefined temperature, after which the NMR measurement is performed on both samples (measurement at time=0). The same measurement is repeated on the samples after a predefined time (time=x), while their temperature is kept constant at the predefined temperature from time=0 to time=x. The difference of the integration of NMR measurement signals of both samples is determined by comparing between time=0 and time=x, thereby allowing to define the degree (percentage) of degradation of the beta-lactamase substrate compound at time=x.
The stability of the beta-lactamase substrate compounds over time at different temperatures was tested the reference HMRZ-86 of example 1 (at 1.2 mM) and the beta-lactamase substrate compound with R being 2-nitro-4-cyano of Example 1 (at 2.4 mM).
The stability was tested by a NMR stability study. The degradation was measured by measuring the evolution of the integration of NMR measurement signals of the molecule in relation to a dimethylformamide (DMF) reference. The stability of the beta-lactamase substrate compound is expressed by the percentage of degradation in function of time.
The stability of all 3 beta-lactamase substrate compounds (R being 4-cyanophenyl, group β being H, CH3 and CF3, respectively), as well as the beta-lactamase having the same group R and a group β according to formula II was tested at 20° C. in DMF as reference.

CTX-M-8 = assay: Reactivity with recombinant enzyme, amperometric; format: biochemical; settings: class A ESBL, protein; CF3 compound 2.4 mM, HMRZ-86 1.2 mM; 10 minutes at 37° C.
KPC-3 = KPC-3 (Klebsiella pneumoniae, UniProt Q9F663, H272Y); assay: Reactivity with recombinant enzyme, amperometric; format: biochemical; settings: class A carbapenemase, protein; CF3 compound 2.4 mM, HMRZ-86 1.2 mM; 10 minutes at 37° C.
OXA-58 = assay: Amperometric detection of beta-lactamase type producing bacteria strains; format: cell-based; settings: 6.0 mM substrate, HMRZ-86 1.2 mM; qualitative
Procedure: (§3) The possibility to detect different beta-lactamase type producing bacteria strains was also tested. As reference, a reference medium comprising 1.2 mM beta-lactamase substrate compound HMRZ-86 was prepared as well.

OXA-48 [8] = assay: as above; format: cell-based; settings: 6.0 mM substrate, HMRZ-86 1.2 mM; qualitative
Procedure: as §3

CTXM = assay: as above; format: cell-based; settings: 6.0 mM substrate, HMRZ-86 1.2 mM; qualitative
Procedure: as §3

OXA-40 [9] = assay: as above; format: cell-based; settings: 6.0 mM substrate, HMRZ-86 1.2 mM; qualitative
Procedure: as §3

CTX-M-2 = CTX-M-2 (Salmonella typhimurium, UniProt P74841); assay: Reactivity with recombinant enzyme, amperometric; format: biochemical; settings: class A ESBL, protein; CF3 compound 2.4 mM, HMRZ-86 1.2 mM; 10 minutes at 37° C.

N#Cc1ccc(C=CC2=C(C(=O)O)N3C(=O)C(NC(=O)C(F)(F)F)C3SC2)cc1 (stereo not drawn) [CF3]
reactivity (detection) (IMP-61): Detected
reactivity (detection) (IMP-31): Detected
reactivity (detection) (OXA-40 [1]): Detected
reactivity (detection) (OXA-213): Detected
reactivity (detection) (IMP-18): Detected
reactivity (detection) (KPC-31; listed as CF3/4-cyanophenyl): not detected
reactivity (detection) (KPC-31; listed as CF3/4-cyanostyryl): Not detected
reactivity (detection) (NDM-1): Detected
detection (oxidation current) [2]: capable of detecting
detection (oxidation current) [3]: do not detect
reactivity (detection) (IMP-14): Detected
reactivity (detection) (OXA-48 [4]): Detected
reactivity (detection) (OXA-143): Detected
AmpC positive clinical strains detected as positive ([5]; substrate 2.4 mM): All
reactivity (detection) (IMP-16): Detected
detection (oxidation current) [6]: capable of detecting
time of first signs of degradation [7]: 1 weeks
reactivity (detection) (CTX-M-8): Detected
reactivity (detection) (KPC-3): Detected
detection (oxidation current) (OXA-58): capable of detecting
detection (oxidation current) (OXA-48 [8]): capable of detecting
detection (oxidation current) (CTXM): capable of detecting
detection (oxidation current) (OXA-40 [9]): capable of detecting
reactivity (detection) (CTX-M-2): Detected

CC(C)(ON=C(C(=O)N[C@@H]1C(=O)N2C(C(=O)O)=C(C=Cc3ccc([N+](=O)[O-])cc3[N+](=O)[O-])CS[C@H]12)c1csc(N)n1)C(=O)O.O=C(O)C(F)(F)F [HMRZ-86, reference compound]
reactivity (detection) (IMP-61): Detected
reactivity (detection) (IMP-31): Detected
reactivity (detection) (OXA-40 [1]): Not detected
reactivity (detection) (OXA-213): Not detected
reactivity (detection) (IMP-18): Detected
reactivity (detection) (KPC-31): Detected
reactivity (detection) (NDM-1): Detected
detection (oxidation current) [2]: capable of detecting
detection (oxidation current) [3]: do not detect
reactivity (detection) (IMP-14): Detected
reactivity (detection) (OXA-48 [4]): Detected
reactivity (detection) (OXA-143): Detected
AmpC positive clinical strains detected as positive ([5]; HMRZ-86 1.2 mM): 53.3%
reactivity (detection) (IMP-16): Detected
detection (oxidation current) [6]: capable of detecting
degradation ([7]; 4° C., after 1 day): over 50%
degradation ([7]; 20° C., after 1 week): ~60%
degradation ([7]; 20° C., after 18 weeks): over 90%
degradation ([7]; 20° C., after 1 day): ~60%
degradation over time ([7]; temperatures between 4° C. and 20° C.): significant degradation over time
reactivity (detection) (CTX-M-8): Detected
reactivity (detection) (KPC-3): Detected
detection (oxidation current) (OXA-58): does not detect
detection (oxidation current) (OXA-48 [8]): capable of detecting
detection (oxidation current) (CTXM): capable of detecting
detection (oxidation current) (OXA-40 [9]): does not detect
reactivity (detection) (CTX-M-2): Detected
